Tests used:
[1] = tested on: UVB-induced erythema, cutaneous vessel dilation and tactile hypersensitivity in SKH1 hairless mice; test: Ultraviolet B-Induced Mouse Sunburn Model; assay type: in vivo
From the text: SKH1 hairless mice, lying on their stomachs with their left sides covered, were exposed to UVB at an intensity of 120 mJ/cm^2 for 91 sec. […] At various timepoints up to 48 hrs post UVB-irradiation, the following assessments were made:
1. Vasculature area in the exposed and unexposed ears by image analysis of digital photos using ImagePro Premier (Media Cybernetics) software. Images are converted to gray-scale, expanded and thresholding, based on each ear's baseline pixel values, is applied to the images. Thresholding differentiates the desired “object” features (i.e. vasculature network) from the background (i.e. skin tissue). The “object” pixels are then quantified and reported as the vasculature area.
2. Erythema on the exposed and unexposed back using a Chromameter (Konica Minolta).
3. Tactile hypersensitivity assessment using a paint brush test. The hypersensitivity is assessed by light stroking of the flank of the mice with a small paint brush every 5 min over 35 min. The behavioral response is scored as follows: 0, no response; 1, mild squeaking with attempts to move away from the brush; 2, vigorous squeaking evoked by the brush, biting at the brush and strong efforts to escape. The scores at the eight timepoints are summed so the maximum hypersensitivity score for each mouse can be 16. The exposed (right) and unexposed (left) flanks were scored independently.

[2] = tested on: LL-37-induced skin inflammation; test: LL-37-Induced Skin Inflammation Mouse Model (ear swelling); assay type: in vivo; conditions: at 6 and 9 hrs after topical treatment, gel on ears of BALB/c mice
Method: One hour following application, the left ear was intradermally injected with LL-37 peptide and the right ear was injected with phosphate-buffered saline (PBS). Ear thickness measurements were made with a digital caliper (Mitutoyo) at various timepoints up to 8 hrs post-injection with LL-37. Ear swelling is an indicator of inflammation.
The data are the mean values from 9-10 mice per group.

[3] = tested on: UVB-exposed skin of SKH1 hairless mice; test: Mouse Model of UV-Induced Erythema (histology of back skin); assay type: in vivo; conditions: for mice with overall healing good to excellent / EPIDERMIS Hyperplasia / DERMIS Congestion / DERMIS Edema / DERMIS Infiltrates / EPIDERMIS Disorganization / EPIDERMIS Necrosis / EPIDERMIS Separation: skin 48 hours after UVB; for EPIDERMIS Hyperplasia / DERMIS Congestion / DERMIS Edema / DERMIS Infiltrates / EPIDERMIS Disorganization / EPIDERMIS Necrosis / EPIDERMIS Separation: mean grade
Method: The right backs of male SKH1 hairless mice were exposed to 120 mJ/cm^2 UVB radiation, while the left sides were shielded. […] An additional group with vehicle applied topically at 20 minutes post UVB exposure served as a control. Samples of skin from the backs from both left and right sides were collected 48 hours following UVB exposure and examined histologically.
Each endpoint is graded on a scale of 0-4 (0=no findings, 1=minimal, 2=mild, 3=moderate, 4=marked). Data are expressed as the mean of values from 6 mice per group.

[4] = Method: To assure the integrity of each skin section, its permeability to tritiated water was determined before application of the test products.
[5] = tested on: 37° C. induced vessel dilation (cutaneous blood flow) in rat paws; test: Rat Blood Flow Assay (laser Doppler flowmetry, hind foot pad); assay type: in vivo; conditions: 4 days of topical dosing (once per day), 0.1%, hairless CD rats
Method: A laser Doppler microvascular perfusion monitor (laser Doppler flowmetry technique, LDF) was used to monitor red blood cell perfusion in the microvasculature of the hind foot pad. The laser doppler flowmetry (LDF) is an OxyFlo Microvascular Perfusion Monitor, from Oxford Optronix Ltd. UK.
Briefly, 15 μL of test articles was applied topically once, or repeatedly (once daily for 4 consecutive days) to one hind foot pad of anaesthetized hairless CD rats and 15 μL of vehicle was applied to the other footpad.
At various timepoints up to 8 hrs following the last test article administration, dynamic blood flow changes were measured and recorded every 15 seconds for 4 minutes per temperature interval for 5 intervals (22° C.→37° C.→4° C.→37° C.→22° C.).
Rats were placed on a 37° C. heat pad to increase their temperature and on an ice pad to decrease their temperature to 4° C. The levels of blood flow in the two paws were compared.
The % blood flow inhibition is calculated as the % difference in the AUC of peak 1 (first 8 min heating and cooling interval) of the laser doppler recordings between the drug-treated and vehicle-treated paws. Data are the mean % inhibition values from 8-10 rats per group.

[6] = 0.1% topical, 20 minutes following UVB exposure
[7] = scale 0-4, 0.1% topical 20 min after UVB
[8] = scale 0-4, 0.1% topical 4 hr after UVB
[9] = scale 0-4, 0.1% topical 8 hr after UVB

SMILES: c1cnc2c(c1)CC[C@H](Cc1c[nH]cn1)C2 [(S)-(+)-7-(1H-Imidazol-4-ylmethyl)-5,6,7,8-tetrahydro-quinoline]
- duration of statistically significant reduction of erythema to nearly baseline levels (chromameter) ([1]; topical dosing to the back 30 min following UVB exposure): at least 48 hrs
- tactile hypersensitivity (paint brush test) ([1]; topical dosing to the back 30 min following UVB exposure, assessed 4 hrs following UVB irradiation, both UV-exposed and control sides): statistically significant reduction of tactile hypersensitivity
- duration of statistically significant cutaneous vasoconstriction (reduction of cutaneous vasculature area) to nearly baseline levels ([1]; topical dosing to the ear 30 min following UVB exposure): at least 48 hrs
- inhibition of LL-37-induced skin inflammation (ear swelling) [2]: statistically significant inhibition
- edema, mixed inflammatory cell infiltrates and vascular congestion of the underlying dermis [3, 6]: significantly reduced
- outcome of healing of UVB-exposed back skin [3, 6]: significantly improved the outcome of healing
- mice with overall healing good to excellent ([3]; 0.1% topical, treated at 20 minutes post UVB exposure): 75%
- mice with overall healing good to excellent ([3]; 0.1% topical, treated at 4 hours post UVB exposure): 50%
- mice with overall healing good to excellent ([3]; 0.1% topical, treated at 8 hours post UVB exposure): 60%
- mice with epidermal failure (moderate to marked separation and necrosis) ([3]; 0.1% topical, treated up to 8 hours following UVB exposure (all treated mice)): 8%
- EPIDERMIS Hyperplasia ([3]; scale 0-4 (0=no findings, 4=marked), 0.1% topical 20 min after UVB): 3.0
- DERMIS Congestion [3, 7]: 1.0
- DERMIS Edema [3, 7]: 0.5
- DERMIS Infiltrates [3, 7]: 0.8
- EPIDERMIS Disorganization [3, 7]: 2.0
- EPIDERMIS Necrosis [3, 7]: 0.5
- EPIDERMIS Separation [3, 7]: 0.3
- DERMIS Congestion [3, 8]: 1.8
- DERMIS Edema [3, 8]: 2.0
- DERMIS Infiltrates [3, 8]: 2.0
- EPIDERMIS Disorganization [3, 8]: 3.0
- EPIDERMIS Hyperplasia [3, 8]: 2.3
- EPIDERMIS Necrosis [3, 8]: 1.3
- EPIDERMIS Separation [3, 8]: 1.3
- DERMIS Congestion [3, 9]: 1.0
- DERMIS Edema [3, 9]: 1.5
- DERMIS Infiltrates [3, 9]: 0.8
- EPIDERMIS Disorganization [3, 9]: 2.0
- EPIDERMIS Hyperplasia [3, 9]: 3.3
- EPIDERMIS Necrosis [3, 9]: 1.0
- EPIDERMIS Separation [3, 9]: 1.3
- penetration into and through skin [4]: does penetrate into and through ex vivo human trunk skin
- distribution in skin layers (mass recovered) ([4]; 48 hour dose exposure, 0.58% (w/w) dose, FIG. 3): higher concentration in the epidermis
- rate of percutaneous absorption (flux into receptor solution) ([4]; human): increased rate of flux at the 18 and 36 hr timepoints
- duration of statistically significant inhibition of 37° C. induced vessel dilation [5]: at least 6 hrs

— US10201535B2 (priority 2011, dated 2019)
